Data on 32 compounds can be found in patent US20240246918A1, “COMPOUNDS AND COMPOSITIONS AS EIF4E INHIBITORS AND THE USES THEREOF” (Ribometrix, Inc., priority 2022, published 2024).

Like-named read-outs stand apart in the source and are kept apart here.

For one assay, the target named is T1, human eIF4E protein (Homo sapiens, UniProt P06730).
T1 construct: purchased Novus NBP-45314
As to the kind of experiment: Biochemical competitive binding assay (TR-FRET competition, EDA-m7GDP-ATTO-647N probe). To be noted: read-out: hEIF4E TR-FRET IC50. The essentials: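 IC50 values come from 4-parameter fits of the normalized 665/620 nm TR-FRET ratio. Compound was first incubated 15 min with 4 nM recombinant His-eIF4E bound to 2.5 nM Eu-anti-His antibody, then 15 min with 5 nM m7GDP-ATTO-647N tracer, in pH 7.5 HEPES buffer with 100 mM KCl, Tween-20 and BSA.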
A general note: In TR-FRET formats the signal depends on donor and acceptor labels being close together.

In assay [1] the test system is cap-dependent translation in Flp-In-293 reporter cells. Briefly: Cellular cap-dependent translation inhibition assay (dual luciferase assay, DLA; Fluc/Rluc ratio, 24 hours). The format is cell-based.
Assay [2] has as its system COLO 205 colorectal tumor cells. As to the kind of experiment: Tumor cell viability inhibition assay (CellTiter-Glo 2.0, 72 hours). The format is cell-based. To be noted: COLO 205 cell viability. The essentials:
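IC50 derived by 4-parameter fitting after normalizing luminescence to DMSO and max-inhibition wells. Compounds tested as 11 concentrations in 4-fold steps on COLO 205 cells seeded at 1500 per well in RPMI-1640/10% FBS; ATP content measured with CellTiter-Glo 2.0 after 72 h.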

The mark [3] stands for this setting: dual luciferase assay, Flp-In-293 reporter cells, 24 hours, Fluc/Rluc ratio, read-out: DLA 205 IC50.
Setting [4] is: Homo sapiens, Flp-In-293, 24 h, dual luciferase assay, Flp-In-293 reporter cells, 24 hours, Fluc/Rluc ratio, read-out: DLA 205 IC50.

T1 sequence (P06730 whole entry): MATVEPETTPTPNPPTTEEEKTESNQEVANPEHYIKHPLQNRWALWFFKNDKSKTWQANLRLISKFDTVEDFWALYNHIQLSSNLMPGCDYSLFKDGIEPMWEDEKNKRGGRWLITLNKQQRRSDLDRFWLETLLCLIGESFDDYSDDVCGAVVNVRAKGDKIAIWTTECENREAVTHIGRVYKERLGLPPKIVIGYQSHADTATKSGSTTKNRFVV

Regarding `Cc1cc(-c2cc(Cl)ccc2OCCn2c(C)nc3c(c2=O)CC(N(C)C2CCC(F)(F)C2)CC3)c2scc(C(=O)O)c2n1` (single isomer, unassigned) [Compound 338], the figures for the IC50 (on human eIF4E protein; in assay [1] (setting [3]); in assay [2]) were below 0.1 µM, below 1 µM and below 5 µM, respectively.
For the compound `Cc1cc(-c2cc(Cl)ccc2OCCn2c(C)nc3c(c2=O)CC(N(C)C2CCCCC2)CC3)c2scc(C(=O)O)c2n1` (stereo not drawn) [Compound 69], the IC50 on human eIF4E protein is below 0.1 µM; in assay [1] (setting [4]), below 1 µM; in assay [2] (Homo sapiens, COLO 205, 72 h) it was below 5 µM.
`Cc1cc(-c2cc(Cl)ccc2OCCn2c(C)nc3c(c2=O)C[C@H](N2CC[C@H](F)C2)CC3)c2scc(C(=O)NS(C)(=O)=O)c2n1` (single isomer, unassigned) [Compound 346]: the IC50 was below 0.1 µM on human eIF4E protein; below 1 µM in assay [1] (setting [4]); below 5 µM in assay [2] (Homo sapiens, COLO 205, 72 h).
Consider `Cc1cc(-c2cc(Cl)ccc2OCCn2c(C)nc3c(c2=O)CC(N(C)C2CC2)CC3)c2scc(C(=O)O)c2n1` (single isomer, unassigned) [Compound 336], for which the IC50 on human eIF4E protein was below 0.1 µM; in assay [1] (setting [3]) it was below 1 µM; in assay [2], below 5 µM.
On to `Cc1nc2c(c(=O)n1CC#Cc1ccc(Cl)cc1-c1ccnc3c(C(=O)O)csc13)CC(N1CC(F)(F)C1)CC2` (stereo not drawn) [Compound 85], for which the IC50 was 0.1 to 0.5 µM on human eIF4E protein; 1 to 5 µM in assay [1] (setting [4]); below 5 µM in assay [2] (Homo sapiens, COLO 205, 72 h).
The matching figures for `Cc1cc(-c2cc(Cl)ccc2OCCn2c(C)nc3c(c2=O)CC(N(C)C)CC3)c2ccc(C(=O)NS(C)(=O)=O)n2n1` (stereo not drawn) [Compound 59, 4-[5-chloranyl-2-[2-[6-[di(methyl)amino]-2-methyl-4-oxidanylidene-5,6,7,8-tetrahydroquinazolin-3-yl]ethoxy]phenyl]-2-methyl-N-methylsulfonyl-pyrrolo[1,2-b]pyridazine-7-carboxamide]: below 0.1 µM, below 1 µM and below 5 µM.
`Cc1cc(-c2cc(Cl)ccc2OCCn2c(C)nc3c(c2=O)CC(N2CCCC(F)(F)C2)CC3)c2scc(C(=O)O)c2n1` (stereo not drawn) [Compound 50]: the IC50 is below 0.1 µM at human eIF4E protein; below 1 µM in assay [1] (setting [4]); below 5 µM in assay [2] (Homo sapiens, COLO 205, 72 h).
For `Cc1cc(-c2cc(Cl)ccc2OCCn2c(C)nc3c(c2=O)CC(N(C)C2(c4ccc(F)cc4)CC2)CC3)c2scc(C(=O)O)c2n1` (single isomer, unassigned) [Compound 280], the IC50 on human eIF4E protein lay within 0.1 to 0.5 µM; in assay [1] (setting [4]) it was 1 to 5 µM; in assay [2] (Homo sapiens, COLO 205, 72 h), 5 to 20 µM.
With `Cc1cc(-c2cc(Cl)ccc2OCCn2c(C)nc3c(c2=O)CC(N(C)CCOC(F)(F)F)CC3)c2scc(C(=O)NS(C)(=O)=O)c2n1` (stereo not drawn) [Compound 55], the IC50 was below 0.1 µM on human eIF4E protein; below 1 µM in assay [1] (setting [4]); below 5 µM in assay [2] (Homo sapiens, COLO 205, 72 h).
The matching figures for `Cc1nc2c(c(=O)n1CC#Cc1ccc(Cl)cc1-c1ccnc3c(C(=O)NS(C)(=O)=O)csc13)CC(N(C)C1CC(F)(F)C1)CC2` (single isomer, unassigned) [Compound 333]: below 0.1 µM, below 1 µM and below 5 µM.
`Cc1cc(-c2cc(Cl)ccc2OCCn2c(C)nc3c(c2=O)CC(N(C)C2CC(F)(F)C2)CC3)c2scc(C(=O)NS(C)(=O)=O)c2n1` (stereo not drawn) [Compound 63]: the IC50 at human eIF4E protein is below 0.1 µM; in assay [1] (setting [4]), below 1 µM; in assay [2] (Homo sapiens, COLO 205, 72 h), below 5 µM.
Consider `Cc1cc(-c2cc(Cl)ccc2OCCn2c(C)nc3c(c2=O)CC(N(C)C2CCCC2)CC3)c2scc(C(=O)O)c2n1` (stereo not drawn) [Compound 80], for which the IC50 on human eIF4E protein is below 0.1 µM; in assay [1] (setting [4]), below 1 µM; in assay [2] (Homo sapiens, COLO 205, 72 h), below 5 µM.
On to `Cc1cc(-c2cc(Cl)ccc2OCCn2c(C)nc3c(c2=O)CC(N(C)C2CC(F)(F)C2)CC3)c2scc(C(=O)NS(C)(=O)=O)c2n1` (single isomer, unassigned) [Compound 93], for which the IC50 was below 0.1 µM on human eIF4E protein; below 1 µM in assay [1] (setting [4]); below 5 µM in assay [2] (Homo sapiens, COLO 205, 72 h).
For the compound `Cc1cc(-c2cc(Cl)ccc2OCCn2c(C)nc3c(c2=O)CC(N2CC(C(F)(F)F)C2)CC3)c2scc(C(=O)NS(C)(=O)=O)c2n1` (single isomer, unassigned) [Compound 322], the IC50 at human eIF4E protein was below 0.1 µM; in assay [1] (setting [3]), below 1 µM; in assay [2] it was below 5 µM.
In the case of `Cc1cc(-c2cc(Cl)ccc2OCCn2c(C)nc3c(c2=O)CC(N2CC(F)C2)CC3)c2scc(C(=O)O)c2n1` (stereo not drawn) [Compound 356], the IC50 at human eIF4E protein is below 0.1 µM; in assay [1] (setting [4]) it was below 1 µM; in assay [2] (Homo sapiens, COLO 205, 72 h) it was below 5 µM.
As to `Cc1cc(-c2cc(Cl)ccc2OCCn2c(C)nc3c(c2=O)CC(N2CCCC2)CC3)c2scc(C(=O)O)c2n1` (stereo not drawn) [Compound 4], the IC50 was below 0.1 µM on human eIF4E protein; below 1 µM in assay [1] (Homo sapiens, Flp-In-293, 24 h, read-out: DLA 205 IC50, dual luciferase assay, Flp-In-293 reporter cells, 24 hours, Fluc/Rluc ratio); 5 to 20 µM in assay [2] (Homo sapiens).
Take `Cc1nc2c(c(=O)n1CC#Cc1ccc(Cl)cc1-c1ccnc3c(C(=O)O)csc13)CC(N(C)Cc1ccncc1)CC2` (stereo not drawn) [Compound 351]: the IC50 on human eIF4E protein is below 0.1 µM; in assay [1] (setting [4]), below 1 µM; in assay [2] (Homo sapiens, COLO 205, 72 h), below 5 µM.
On to `Cc1cc(-c2cc(Cl)ccc2OCCn2c(C)nc3c(c2=O)CC(N2CC4COCC4C2)CC3)c2scc(C(=O)O)c2n1` (stereo not drawn) [Compound 19], for which the IC50 on human eIF4E protein is below 0.1 µM; in assay [1] (setting [4]) it was below 1 µM; in assay [2] (Homo sapiens, COLO 205, 72 h) it was below 5 µM.
With `Cc1cc(-c2cc(Cl)ccc2OCCn2c(C)nc3c(c2=O)CC(N(C)Cc2cc[nH]c(=O)c2)CC3)c2scc(C(=O)O)c2n1` (single isomer, unassigned) [Compound 246], the IC50 at human eIF4E protein is below 0.1 µM; in assay [1] (setting [4]) it was above 5 µM; in assay [2] (Homo sapiens, COLO 205, 72 h), above 20 µM.
In the case of `Cc1cc(-c2cc(Cl)ccc2OCCn2c(C)nc3c(c2=O)CC(N2CC(F)C2)CC3)c2scc(C(=O)NS(C)(=O)=O)c2n1` (single isomer, unassigned) [Compound 342], the IC50 on human eIF4E protein was below 0.1 µM; in assay [1] (setting [4]), below 1 µM; in assay [2] (Homo sapiens, COLO 205, 72 h), below 5 µM.
On to `Cc1cc(-c2cc(Cl)ccc2OCCn2c(C)nc3c(c2=O)CC(N(C2CC2)C2CC2)CC3)c2scc(C(=O)NS(C)(=O)=O)c2n1` (single isomer, unassigned) [Compound 291], for which the IC50 on human eIF4E protein was below 0.1 µM; in assay [1] (setting [4]) it was below 1 µM; in assay [2] (Homo sapiens, COLO 205, 72 h) it was below 5 µM.
On to `Cc1cc(-c2cc(Cl)ccc2OCCn2c(C)nc3c(c2=O)CC(N2CCC4(CN(C)C4)C2)CC3)c2scc(C(=O)O)c2n1` (stereo not drawn) [Compound 34], for which the IC50 was below 0.1 µM at human eIF4E protein; above 5 µM in assay [1] (setting [4]); above 20 µM in assay [2] (Homo sapiens, COLO 205, 72 h).
Regarding `Cc1cc(-c2cc(Cl)ccc2OCCn2c(C)nc3c(c2=O)CC(N(C)Cc2ccncc2)CC3)c2scc(C(=O)O)c2n1` (stereo not drawn) [Compound 16], the IC50 on human eIF4E protein was below 0.1 µM; in assay [1] (setting [4]) it was below 1 µM; in assay [2] (Homo sapiens, COLO 205, 72 h) it was below 5 µM.
Turning to `Cc1cc(-c2cc(Cl)ccc2OCCn2c(C)nc3c(c2=O)CC(N(C)C2CCC(F)(F)C2)CC3)c2scc(C(=O)O)c2n1` (single isomer, unassigned) [Compound 337], the IC50 was below 0.1 µM at human eIF4E protein; below 1 µM in assay [1] (setting [4]); below 5 µM in assay [2] (Homo sapiens, COLO 205, 72 h).
As for `Cc1cc(-c2cc(Cl)ccc2OCCn2c(C)nc3c(c2=O)CC(N(C)C2(c4ccc(F)cc4)CC2)CC3)c2scc(C(=O)O)c2n1` (single isomer, unassigned) [Compound 281], the IC50 at human eIF4E protein was in the range of 0.1 to 0.5 µM; in assay [1] (setting [3]), 1 to 5 µM; in assay [2], 5 to 20 µM.
`Cc1cc(-c2cc(Cl)ccc2OCCn2c(C)nc3c(c2=O)CC(N(C)CCOC(F)(F)F)CC3)c2scc(C(=O)O)c2n1` (stereo not drawn) [Compound 41]: the IC50 on human eIF4E protein is below 0.1 µM; in assay [1] (setting [4]), below 1 µM; in assay [2] (Homo sapiens, COLO 205, 72 h) it was below 5 µM.
The matching figures for `Cc1cc(-c2cc(Cl)ccc2OCCn2c(C)nc3c(c2=O)CC(N2CC(C(F)(F)F)C2)CC3)c2scc(C(=O)O)c2n1` (stereo not drawn) [Compound 90]: below 0.1 µM, below 1 µM and below 5 µM.
The matching figures for `Cc1cc(-c2cc(Cl)ccc2OCCn2c(C)nc3c(c2=O)CC(N2CC4COCC4C2)CC3)c2sccc2n1` (stereo not drawn) [Compound 78]: 0.1 to 0.5 µM, 1 to 5 µM and above 20 µM.
Turning to `Cc1nc2c(c(=O)n1CC#Cc1ccc(Cl)cc1-c1ccnc3c(C(=O)NS(C)(=O)=O)csc13)CC(N1CCCCC1)CC2` (single isomer, unassigned) [Compound 316], the IC50 is below 0.1 µM at human eIF4E protein, 1 to 5 µM in assay [1] (setting [3]) and 5 to 20 µM in assay [2].
`Cc1cc(-c2cc(Cl)ccc2OCCn2c(C)nc3c(c2=O)CC(N2CC4COCC4C2)CC3)c2scc(C(=O)NS(C)(=O)=O)c2n1` (single isomer, unassigned) [Compound 89]: the IC50 on human eIF4E protein is below 0.1 µM; in assay [1] (setting [3]), below 1 µM; in assay [2] it was below 5 µM.
Turning to `Cc1cc(-c2cc(Cl)ccc2OCCn2c(C)nc3c(c2=O)CC(N2CCC(F)(F)C2)CC3)c2scc(C(=O)O)c2n1` (stereo not drawn) [Compound 53], the IC50 at human eIF4E protein is below 0.1 µM; in assay [1] (setting [4]), below 1 µM; in assay [2] (Homo sapiens, COLO 205, 72 h), below 5 µM.
With `Cc1nc2c(c(=O)n1CC#Cc1ccc(Cl)cc1-c1ccnc3c(C(=O)NS(C)(=O)=O)csc13)CC(N1CC(F)(F)C1)CC2` (single isomer, unassigned) [Compound 331], the IC50 on human eIF4E protein lay within 0.1 to 0.5 µM; in assay [1] (setting [3]), 1 to 5 µM; in assay [2] (Homo sapiens, COLO 205, 72 h), 5 to 20 µM.
